Results: patent US20150038435A1, “N-TERMINALLY MODIFIED OLIGOPEPTIDES AND USES THEREOF” (Novo Nordisk A/S, priority 2012, published 2015)
“And” between values parts separate entries of the source, which are not always exact repeats. Equal values may be shown once. Residues, ends and D or L forms follow the SMILES beside them. *: point of attachment. Lauroyl = CCCCCCCCCCCC(=O)*

Biological target: Chymotrypsin
Assay: Inhibition of enzymatic degradation of a chromogenic substrate (Example 202)
Assay type: biochemical
Settings: substrate N-succinyl-Ala-Ala-Pro-Phe-p-Nitroanilide
Excerpt: The use of chromogenic substrates to monitor activity of proteolytic enzymes is known in the field (for example DelMar, E. G., et al., Anal. Biochem., 99, 316-320, (1979)). For example, N-succinyl-Ala-Ala-Pro-Phe-p-Nitroanilide is commonly used substrate for measuring chymotrypsin activity. Enzymatic cleavage of 4-nitroanilide substrates yields 4-nitroaniline (yellow color under alkaline conditions).
An assay following the increase in absorbance at 395 nm as a function of time was established in 96 well format using Varioskan Flash Multimode Meter (Thermo Scientific). Each well contained 70 μl of Dulbecco's phosphate buffer saline (Invitrogen catalogue #14190-094), 10 μl of N-succinyl-Ala-Ala-Pro-Phe-p-Nitroanilide (Sigma cat# S 7388) in DMSO (different concentrations were used in order to obtain the inhibition constant), 10 μl of N-terminally acylated peptide or oligopeptide of the invention in varying concentration and 10 μl of a stock solution of an enzyme (chymotrypsin, trypsin, elastase, etc.). The incubations were performed at 37° C. Absorbance at 395 nm was measured immediately after addition of the enzyme to the 96 well plate and also every minute for the next 80 minutes. The concentration of the enzyme was optimized to allow determination of slopes for the time course of initial absorbance increase with and without added inhibitors. The slopes were determined by linear regression of the linear part of the fluorescence trace (for example, the first 10 min of the reaction). Each assay was performed in duplicate and average of the two traces was included in the calculations. The relative effect of N-terminally acylated peptide or oligopeptides of the invention on enzymatic degradation of N-succinyl-Ala-Ala-Pro-Phe-p-Nitroanilide was obtained by comparison of the slopes achieved by the same concentration of the N-terminally acylated peptide or oligopeptides. […] This was done by plotting the slopes achieved with different concentrations of the N-terminally acylated peptide or oligopeptides of the invention as a function of their concentrations and fitting the experimental results using, for example, sigmoidal logistic regression (2 parameters, Sigma Plot v 11). Inhibition constants for the interaction between the N-terminally acylated peptide or oligopeptides of the invention and proteolytic enzymes were also obtained by performing the assay described above with varying concentrations of the inhibitor and substrate and analyzing the results, for example, by double reciprocal transformation as known to the person skilled in the art and described for example in Hubalek, F. et al., J. Med. Chem. 47, 1760-1766 (2004).

Ki (chymotrypsin): ~130 µM and ~150 µM | kind of enzyme inhibition (chymotrypsin): competitive inhibition | Ki: 130 µM
SMILES: CCCCCCCCCCCC(=O)N[C@@H](C)C(=O)N[C@@H](C)C(=O)N1CCC[C@H]1C(=O)N[C@@H](Cc1ccccc1)C(=O)O [Example 34, N-dodecanoyl-Ala-Ala-Pro-Phe-OH] (Lauroyl-AAPF-OH)
